Experimental findings from PMC12213745, “Compounds from Cyclocarya paliurus leaves inhibit binary division of methicillin-resistant Staphylococcus aureus by disrupting FtsZ dynamic” (Frontiers in Microbiology, 2025) are described below.

Converted amounts (≈) assume the structure as drawn. Where two headings read alike, the source gives them in different places.

One assay has as its target T1, SaFtsZ (Staphylococcus aureus, UniProt P0A031).
T1 construct: purchased Cytoskeleton, Inc. FTZ02
T1 sequence (P0A031 1-390): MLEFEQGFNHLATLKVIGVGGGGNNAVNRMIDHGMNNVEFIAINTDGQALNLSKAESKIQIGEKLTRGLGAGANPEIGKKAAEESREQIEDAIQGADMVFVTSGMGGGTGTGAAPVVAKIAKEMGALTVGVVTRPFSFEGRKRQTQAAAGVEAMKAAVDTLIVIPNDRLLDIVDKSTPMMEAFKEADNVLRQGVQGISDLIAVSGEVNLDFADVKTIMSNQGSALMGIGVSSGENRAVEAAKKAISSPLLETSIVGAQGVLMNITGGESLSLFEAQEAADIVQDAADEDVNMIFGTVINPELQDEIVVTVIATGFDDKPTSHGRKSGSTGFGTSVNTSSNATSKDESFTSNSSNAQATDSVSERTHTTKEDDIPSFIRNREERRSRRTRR
The experiment in a line: FtsZ polymerization assay (A360). The format is biochemical. The settings on record: 10 μM SaFtsZ; 0.25 × and 0.5 × MIC; vs DMSO control. Here is the method: To assess the effects of AA, MA, and UA on FtsZ polymerization, an in vitro FtsZ polymerization assay was performed. […] Polymerization was initiated by the addition of polymerization buffer components, bringing the final concentrations to 250 mM KCl and 5 mM MgCl2 Absorbance at 360 nm (A360) was monitored for 5 min to establish a stable baseline. GTP was then added to a final concentration of 1 mM. Polymerization was tracked by measuring A360 for 30 min using a microplate reader (SpectraMax i3x, Molecular Devices, CA, USA).
To determine whether the disruptions of Z-ring were due to direct effects on FtsZ polymerization, we performed in vitro polymerization assays. FtsZ polymerization was assessed by monitoring the time-dependent increase in A360 upon induction using a microplate reader. Briefly, 10 μM SaFtsZ was pre-incubated with AA, MA, UA or DMSO, and polymerization was initiated by adding K^+, Mg^2+, and GTP.

The test system of a further assay is S. epidermidis (1.143). The experiment in a line: MIC, broth microdilution (CLSI). The settings on record: Staphylococcus epidermidis. The format is cell-based. From the text: (§1) Staphylococcus aureus ATCC25923 and Escherichia coli ATCC25922 were obtained from the American Type Culture Collection (ATCC, Manassas, VA, USA). The Methicillin-resistant S. aureus (MRSA) clinical isolate MRSA-4, previously confirmed as mecA-positive and characterized for its antibiotic resistance profile ([Sun et al., 2023]), was used in this study. Staphylococcus epidermidis (GDMCC 1.143), Enterococcus faecalis (GDMCC 1.164), and Salmonella enterica subsp. enterica (GDMCC 1.1114) were obtained from the Guangdong Microbial Culture Collection Center (GDMCC, Guangzhou, China). The Pseudomonas aeruginosa PA14 strain was kindly provided by Professor Min Wu (Southwest Medical University, China). All bacterial strains were routinely cultured in Mueller-Hinton broth (MHB) or Luria-Bertani (LB) broth medium at 37°C with shaking at 200 rpm. Vancomycin was purchased from Solarbio Science & Technology Co., Ltd. (Beijing, China), and oxacillin was obtained from Taiji Group Hengsheng Pharmaceutical Co., Ltd. (Chengdu, China). The polyclonal rabbit primary anti-body to FtsZ was purchased from Abcam PLC (Cambridge, UK). Alexa488-conjugated goat anti-rabbit IgG was purchased from ZSGB-BIO Biotechnology (Beijing, China). DAPI staining solution was purchased from Beyotime Biotechnology (Shanghai, China).
(§2) The minimum inhibitory concentrations (MICs) of the test compounds (AA, MA, and UA) were determined using the standard broth microdilution method in accordance with the Clinical and Laboratory Standards Institute (CLSI) guidelines ([Humphries et al., 2021]). Bacteria were cultured in MHB or LB broth at 37°C with shaking (200 rpm) to the logarithmic phase, then diluted to a final density of 1 × 10^6 CFU/mL. Test compounds (dissolved in DMSO) and positive controls (vancomycin and oxacillin) were diluted in MHB and serially twofold diluted in 96-well plates. Each well was inoculated with 100 μL of bacterial suspension (1 × 10^6 CFU/mL), yielding a final bacterial density of 5 × 10^5 CFU/mL and a total volume of 200 μL. The final concentrations tested were 128 to 1 μg/mL for AA, MA, and UA; 16 to 0.5 μg/mL for vancomycin; and 64 to 0.0625 μg/mL for oxacillin. DMSO was used as a solvent control. Plates were incubated statically at 37°C for 18–24 h. After incubation, the OD600 was measured using a microplate reader (SpectraMax i3x, Molecular Devices, CA, USA). The MIC was defined as the lowest compound concentration that caused ≥ 90% inhibition of bacterial growth compared to the drug-free growth control. All tests were performed in three independent biological replicates.
(§3) Following the isolation and identification of AA, MA, and UA from ECPL, we evaluated their antibacterial activity and spectrum. The MICs of the compounds were determined against MRSA-4, S. aureus ATCC25923, S. epidermidis, and E. faecalis (Gram-positive), as well as P. aeruginosa PA14, E. coli ATCC25922, and S. enterica subsp. Enterica (Gram-negative) using the standard broth microdilution method in accordance with CLSI guidelines ([Humphries et al., 2021]).
In general terms: In broth dilution the organism is exposed to a series of concentrations in liquid medium.

The next assay relates to E. faecalis. The experiment in a line: MIC, broth microdilution (CLSI). The format is cell-based. The settings on record: Enterococcus faecalis.
Description: as §1, §2, §3

The subject of another assay is E. coli ATCC25922. As to the kind of experiment: MIC, broth microdilution (CLSI). The format is cell-based. As to conditions: Escherichia coli.
Description: as §1, §2, §3

Setting [1] is: S. epidermidis (1.143), ≥ 90% growth inhibition, 18–24 h, read-out: MIC.
The mark [2] stands for this setting: E. faecalis, ≥ 90% growth inhibition, 18–24 h, read-out: MIC.
The mark [3] stands for this setting: E. coli ATCC25922, ≥ 90% growth inhibition, 18–24 h, read-out: MIC.

As usually defined, the MIC is the lowest concentration found to suppress growth. As to `C[C@H]1[C@H](C)CC[C@]2(C(=O)O)CC[C@]3(C)C(=CC[C@@H]4[C@@]5(C)C[C@@H](O)[C@H](O)[C@@](C)(CO)[C@@H]5CC[C@]43C)[C@H]12` [AA, asiatic acid], on SaFtsZ, the “effect on FtsZ polymerization (A360)” value is “significantly enhanced FtsZ polymerization”. The MIC in the assay on S. epidermidis (1.143) (setting [1]) was 16 µg/mL (≈ 32.7 µM); in the assay on E. faecalis (setting [2]) it was 16 µg/mL (≈ 32.7 µM); with E. coli ATCC25922 (setting [3]), over 128 µg/mL.
As to `CC1(C)CC[C@]2(C(=O)O)CC[C@]3(C)C(=CC[C@@H]4[C@@]5(C)C[C@@H](O)[C@H](O)C(C)(C)[C@@H]5CC[C@]43C)[C@@H]2C1` [MA, maslinic acid], at SaFtsZ, the “effect on FtsZ polymerization (A360)” value is reported as “markedly inhibited FtsZ polymerization”. For the same compound, the MIC in the assay on S. epidermidis (1.143) was 8 µg/mL (≈ 16.9 µM); in the assay on E. faecalis it was 4 µg/mL (≈ 8.46 µM); against E. coli ATCC25922 (ATCC25922) it was over 128 µg/mL.
In the case of `C[C@H]1[C@H](C)CC[C@]2(C(=O)O)CC[C@]3(C)C(=CC[C@@H]4[C@@]5(C)CC[C@H](O)C(C)(C)[C@@H]5CC[C@]43C)[C@H]12` [UA, ursolic acid], the “effect on FtsZ polymerization (A360)” value at SaFtsZ is reported as “markedly inhibited FtsZ polymerization”. Moreover, the MIC is 8 µg/mL (≈ 17.5 µM) with S. epidermidis (1.143) (setting [1]), 2 µg/mL (≈ 4.38 µM) in the assay with E. faecalis (setting [2]) and over 128 µg/mL in the assay with E. coli ATCC25922 (setting [3]).
